The data set can be described thus: Contact angle of spreading component. Type of data set: physicochemical. Particulars: 10% by weight aqueous solution, droplet on stainless steel plate, θ/2 method (JIS R3257). The method, then: It is preferred that the contact angle of the spreading component to be mixed in the lice eliminator according to the present invention is 1 to 60°. When the contact angle on a solid surface of the spreading component to be mixed in the lice eliminator according to the present invention is in this range, the lice eliminator spreads wet and is easily taken onto a louse, for example, easily adheres to and spreads out over the outer skin of a louse, without being repelled by the outer skin when brought into contact with the louse, and the effect of exterminating a louse by blocking the louse from the outside, for example, by sealing the spiracle of the louse becomes higher. It is preferred that the contact angle of the spreading component contained in the lice eliminator of the present invention is measured by a θ/2 method or the like in accordance with the method described in JIS R3257 (1999) or the like. When the spreading component is soluble in water and is solid, the contact angle as an aqueous solution, for example, at 10% by weight or the like is measured. When the spreading component is not soluble in water and is in a liquid state, the contact angle is measured as the stock solution, and when the spreading component is soluble in water and is in a liquid state, the contact angle is measured as the stock solution or an aqueous solution at 10% by weight or the like.
A 10% by weight aqueous solution of each spreading component was prepared, and the contact angle when a droplet of the aqueous solution was put on a stainless steel plate was measured with a contact angle meter (CAX-150 manufactured by Kyowa Interface Science Co., Ltd.) by a θ/2 method in accordance with the method described in JIS R3257 (1999).

`CCCCCCCCCCCC[N+](C)(C)C.[Cl-]` [compound 4, Lauryl trimethyl ammonium chloride]: the “Contact angle (°) of agent” value is listed as 36 °.
For `CCCCCCCCCCCCOS(=O)(=O)[O-].[Na+]` [compound 3, Sodium lauryl sulfate] the value was 38 °.
For `CCCCCCCCCCCCc1ccc(S(=O)(=O)[O-])cc1.[Na+]` [compound 1, Sodium dodecylbenzenesulfonate] the value was 25 °; for “Monolauric acid polyethylene glycol [compound 10]”, 39 °; for “Polyethylene glycol monolaurate [compound 9]”, 34 °.
On to “Polyoxyethylene lauryl ether [compound 8]”, for which the “Contact angle (°) of agent” value is listed as 38 °.

Values taken from patent publication US20210251220A1, “LICE ELIMINATOR” (priority 2018, published 2021).
